# Experimental data published in US9969716B2, “Indole derivatives as modulators of methyl modifying enzymes, compositions and uses thereof” (Constellation Pharmaceuticals, Inc., priority 2013, dated 2018).
# Where two headings read alike, the source gives them in different places.
# Assays:
# EZH2 = EZH2 (Homo sapiens, UniProt Q15910); experiment: EZH2 assay (rPRC2, 3H SAM methyl transfer to biotinylated oligonucleosomes, FlashPlate); format: biochemical
# Protocol: (§1) EZH2 Assay: Assays were carried out by mixing rPRC2 together with biotinylated oligonucleosome substrates in the presence of the radio-labeled enzyme co-factor, S-adenosyl-L-methionine (^3H SAM) (Perkin Elmer) and monitoring the enzymatically mediated transfer of tritiated methyl groups from ^3H SAM to histone lysine residues. The amount of resulting tritiated methyl histone product was measured by first capturing the biotinylated oligonucleosomes in streptavidin (SAV) coated FlashPlates (Perkin Elmer), followed by a wash step to remove un-reacted ^3H SAM, and then counting on a TopCount NXT 384 well plate scintillation counter (Perkin Elmer). The final assay conditions for EZH2 were as follows: 50 mM Tris Buffer pH 8.5, 1 mM DTT, 69 μM Brij-35 detergent, 5.0 mM MgCl2, 0.1 mg/mL BSA, 0.2 μM ^3H SAM, 0.2 μM biotinylated oligonucleosomes, 3.6 μM H3K27me3 peptide and 2 nM EZH2.
# (§2) A 12.5 μL volume of the HMT enzyme, H3K27me3 peptide and oligonucleosome substrate in assay buffer was added to each well of the assay plate using a Multidrop Combi (ThermoFisher). Compounds were pre-incubated with the enzyme for 20 min, followed by initiation of the methyltransferase reaction by addition of 12.5 μL of ^3H SAM in assay buffer (final volume=25 μL). The final concentrations of compounds ranged from a top default concentration of 80 μM down to 0.16 μM in ten 2-fold dilution steps. Reactions were carried out for 60 minutes and quenched with 20 μL per well of 1.96 mM SAH, 50 mM Tris pH 8.5, 200 mM EDTA. Stopped reactions were transferred to SAV coated Flashplates (Perkin Elmer), incubated for 120 min, washed with a plate washer, and then read on the TopCount NXT (1.0 min/well) to measure the amount of methyl histone product formed during the reaction.
# Y641N EZH2 = Y641N EZH2 (Homo sapiens, UniProt Q15910, Y641N); experiment: Y641N EZH2 assay (as EZH2 assay, H3K27Me2 oligonucleosomes as substrate); format: biochemical
# Protocol: as §1, §2
# [1] = tested on: H3K27me3 mark in HeLa cells; experiment: H3K27me3 Alpha Hela Assay (AlphaLISA); format: cell-based; conditions: Homo sapiens, 72 hrs, read-out: EZH2_Cell_H3K27me3_Alpha_HeLa (EC50_K27me3)
# Protocol: Ten different doses of each test compound (in a series of 3-fold dilutions) were plated in duplicate 384-well tissue culture treated plates (Catalog #781080; Greiner Bio One; Monroe, N.C.). Hela cells grown in culture were trypsinized and counted using a Countess® cell counter (Catalog # C10281; Life Technologies, Grand Island, N.Y.). Cell were diluted to 67,000 cells per mL in 10% DMEM (Catalog #10569-010 Life Technologies, Grand Island, N.Y.) and 15 μL (1,000 cells) were plated into each well using the Biotek MicroFlo™ Select Dispenser (BioTek Instruments, Inc. Vermont, USA),) of the 384-well plate. Plates were incubated at 37° C./5% CO2 for 72 hrs. One of the duplicate plates was processed for HeLa assay and the other for viability.
# To the plate processed for AlphaLISA was added 5 μL per well Cell-Histone Lysis buffer (1λ) (Catalog # AL009F1 Perkin Elmer; Waltham, Mass.) and the plate was incubated at RT for 30 minutes on a plate shaker with low speed (Model#4625-Q Thermo Scientific; Waltham, Mass.). Then, 10 μL per well Histone Extraction buffer (catalog # AL009F2; Perkin Elmer; Waltham, Mass.) was added and the plate further incubated at RT for 20 min on plate shaker with low speed. To each well was then added 10 μL per well of a 5× mix of anti-K27me3 acceptor beads plus Biotinylated anti-Histone H3 (C-ter) Antibody (diluted to 3 nM final) (Catalog #AL118 Perkin Elmer; Waltham, Mass.). Dilution of the acceptor beads and then anti-Histone H3 was with 1× Histone Detection buffer (Catalog # AL009F3 Perkin Elmer; Waltham, Mass.) which was produced diluted from the 10× stock provided. The plate was sealed with an aluminum plate sealer and incubated at 23° C. for 60 min. We then added 10 μL 5× solution of Streptavidin Donor beads (Catalog #6760002 Perkin Elmer; Waltham, Mass.) (20 μg/mL final in 1× Histone Detection Buffer), sealed the plate with Aluminum plate sealer and incubated at 23° C. for 30 min. The plates were then read using an EnVision-Alpha Reader (model #2104 Perkin Elmer; Waltham, Mass.).
# Data from both assays was analyzed using Assay Assistant (Constellation Pharmaceuticals In-house product) and Activity Base (IDBS Ltd, Surrey, UK) template. Data files were imported to Assay Assistant and assay conditions were specified. A unique Analysis ID was created and the data files exported to Activity Base. An analysis template was created on Activity Base to measure dose-dependent inhibition of H3K27me3 mark and cell viability respectively. Readout of DMSO wells were used to normalize the data. Resulting curves were fitted using Activity base software Model 205 (IDBS Ltd, Surrey, UK). The data was checked for quality, validated and integrated in excel format using SARview (IDBS Ltd, Surrey, UK).
# [2] = 2 nM EZH2, 0.2 μM 3H SAM, 0.2 μM biotinylated oligonucleosomes, 3.6 μM H3K27me3 peptide, 60 min, read-out: EZH2_nuc_BSA_Brij_1.5 (IC50)
# [3] = Y641N EZH2, reconstituted H3K27Me2 oligonucleosomes as substrate, read-out: EZH2_Y641N_nuc_BSA_Brij_6.0 (IC50)
# Chain of EZH2 (Q15910 whole entry): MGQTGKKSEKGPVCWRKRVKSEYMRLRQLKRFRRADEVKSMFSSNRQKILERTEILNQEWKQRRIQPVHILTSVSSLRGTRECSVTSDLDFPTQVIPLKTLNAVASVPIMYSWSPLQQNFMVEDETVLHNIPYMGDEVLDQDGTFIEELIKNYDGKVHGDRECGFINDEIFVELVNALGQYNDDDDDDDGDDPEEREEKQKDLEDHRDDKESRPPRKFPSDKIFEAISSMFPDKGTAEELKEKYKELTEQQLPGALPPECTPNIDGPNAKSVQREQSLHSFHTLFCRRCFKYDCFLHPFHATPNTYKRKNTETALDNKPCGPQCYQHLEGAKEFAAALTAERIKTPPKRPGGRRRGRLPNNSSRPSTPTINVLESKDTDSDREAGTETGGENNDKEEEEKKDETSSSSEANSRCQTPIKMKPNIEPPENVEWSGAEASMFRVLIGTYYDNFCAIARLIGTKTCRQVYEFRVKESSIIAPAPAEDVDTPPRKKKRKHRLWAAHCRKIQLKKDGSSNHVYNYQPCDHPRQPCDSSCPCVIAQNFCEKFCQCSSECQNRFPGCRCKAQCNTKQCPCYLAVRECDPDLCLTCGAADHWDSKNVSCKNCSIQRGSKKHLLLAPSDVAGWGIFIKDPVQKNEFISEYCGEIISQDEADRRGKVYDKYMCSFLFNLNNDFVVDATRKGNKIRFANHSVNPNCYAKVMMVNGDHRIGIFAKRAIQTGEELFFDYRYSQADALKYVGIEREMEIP
# Chain of EZH2 (O75530 whole entry partner): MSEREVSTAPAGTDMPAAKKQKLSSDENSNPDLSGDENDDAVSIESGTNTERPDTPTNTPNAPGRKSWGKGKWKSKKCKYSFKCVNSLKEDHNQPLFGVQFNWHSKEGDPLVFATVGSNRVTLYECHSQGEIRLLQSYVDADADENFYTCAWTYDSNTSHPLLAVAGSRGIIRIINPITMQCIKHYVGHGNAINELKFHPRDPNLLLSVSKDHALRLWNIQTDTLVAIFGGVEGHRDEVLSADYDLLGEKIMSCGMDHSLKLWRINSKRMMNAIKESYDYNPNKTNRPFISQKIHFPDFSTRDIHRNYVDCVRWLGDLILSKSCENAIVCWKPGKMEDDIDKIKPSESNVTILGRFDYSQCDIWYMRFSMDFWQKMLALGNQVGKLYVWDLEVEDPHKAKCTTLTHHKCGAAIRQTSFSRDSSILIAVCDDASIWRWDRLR
# Chain of EZH2 (Q15022 whole entry partner): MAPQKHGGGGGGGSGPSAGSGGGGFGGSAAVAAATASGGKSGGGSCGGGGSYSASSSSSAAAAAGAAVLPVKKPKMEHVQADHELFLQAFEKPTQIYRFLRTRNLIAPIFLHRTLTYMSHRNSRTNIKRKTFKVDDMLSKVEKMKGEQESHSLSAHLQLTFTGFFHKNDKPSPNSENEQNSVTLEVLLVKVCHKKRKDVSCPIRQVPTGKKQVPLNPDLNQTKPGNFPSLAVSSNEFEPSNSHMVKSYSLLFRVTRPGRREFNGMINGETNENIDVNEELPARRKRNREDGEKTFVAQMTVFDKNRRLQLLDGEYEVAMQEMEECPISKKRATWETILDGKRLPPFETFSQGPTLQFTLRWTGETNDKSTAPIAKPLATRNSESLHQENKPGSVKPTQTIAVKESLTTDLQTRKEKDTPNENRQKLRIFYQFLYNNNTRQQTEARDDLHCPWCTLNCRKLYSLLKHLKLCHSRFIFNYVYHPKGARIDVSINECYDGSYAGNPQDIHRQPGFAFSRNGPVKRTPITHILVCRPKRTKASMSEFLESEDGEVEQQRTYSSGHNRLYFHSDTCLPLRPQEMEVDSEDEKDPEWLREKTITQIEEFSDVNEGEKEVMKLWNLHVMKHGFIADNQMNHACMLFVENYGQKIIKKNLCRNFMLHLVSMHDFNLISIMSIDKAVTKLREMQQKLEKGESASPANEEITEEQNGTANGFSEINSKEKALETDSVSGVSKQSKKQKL
# Chain of Y641N EZH2 (Q15910 whole entry Y641N): as the sequence (Q15910 whole entry) above, with Y641N counted along it
# Chain of Y641N EZH2 (O75530 whole entry partner): as the sequence (O75530 whole entry partner) above
# Chain of Y641N EZH2 (Q15022 whole entry partner): as the sequence (Q15022 whole entry partner) above
smiles,measurement,setting,value
"COc1cc(C)[nH]c(=O)c1CNC(=O)c1c(C)n([C@H](C)C2CCN(CC(C)(F)F)CC2)c2ccccc12 [Compound 101, (R)-1-(1-(1-(2,2-difluoropropyl)piperidin-4-yl)ethyl)-N-((4-methoxy-6-methyl-2-oxo-1,2-dihydropyridin-3-yl)methyl)-2-methyl-1H-indole-3-carboxamide]",IC50,EZH2,< 100 nM
same,IC50,Y641N EZH2,< 100 nM
same,EC50,[1],< 400 nM
COc1cc(C)[nH]c(=O)c1CNC(=O)c1c(C)n([C@H](C)C2CCN(CC3(C(F)(F)F)CC3)CC2)c2ccccc12 [Compound 102],IC50,EZH2,< 100 nM
same,IC50,Y641N EZH2,< 100 nM
same,EC50,[1],< 400 nM
COc1cc(C)[nH]c(=O)c1CNC(=O)c1c(C)n([C@H](C)C2CCN(CC(F)(F)C(F)F)CC2)c2ccccc12 [Compound 103],IC50,EZH2,< 100 nM
same,IC50,Y641N EZH2,< 100 nM
same,EC50,[1],< 400 nM
COc1cc(C)[nH]c(=O)c1CNC(=O)c1c(C)n([C@H](C)C2CCN(C(=O)C3(C(F)(F)F)CCC3)CC2)c2ccccc12 [Compound 104],IC50,EZH2,< 100 nM
same,IC50,Y641N EZH2,< 100 nM
same,EC50,[1],< 400 nM
Cc1cc(Cl)c(CNC(=O)c2c(C)n([C@H](C)C3CCN(CC(C)(F)F)CC3)c3ccccc23)c(=O)[nH]1 [Compound 105],IC50,EZH2,< 100 nM
same,IC50,Y641N EZH2,< 100 nM
same,EC50,[1],< 400 nM
Cc1cc(Cl)c(CNC(=O)c2c(C)n([C@H](C)C3CCN(CC(F)F)CC3)c3ccccc23)c(=O)[nH]1 [Compound 106],IC50,EZH2,< 100 nM
same,IC50,Y641N EZH2,< 100 nM
same,EC50,[1],< 400 nM
CCS(=O)(=O)N1CCC([C@@H](C)n2c(C)c(C(=O)NCc3c(Cl)cc(C)[nH]c3=O)c3ccccc32)CC1 [Compound 107],IC50,EZH2,< 100 nM
same,IC50,Y641N EZH2,< 100 nM
same,EC50,[1],< 400 nM
"COc1cc(C)[nH]c(=O)c1CNC(=O)c1c(C)n([C@H](C)C2CCN(Cc3cc(F)cc(F)c3)CC2)c2ccccc12 [Compound 109, (R)-1-(1-(1-(3,5-difluorobenzyl)piperidin-4-yl)ethyl)-N-((4-methoxy-6-methyl-2-oxo-1,2-dihydropyridin-3-yl)methyl)-2-methyl-1H-indole-3-carboxamide]",IC50,EZH2,< 100 nM
same,IC50,Y641N EZH2,< 100 nM
same,EC50,[1],< 400 nM
Cc1cc(OC(F)F)c(CNC(=O)c2c(C)n([C@H](C)C3CCN(CC(F)F)CC3)c3ccccc23)c(=O)[nH]1 [Compound 110],IC50,EZH2,< 100 nM
same,IC50,Y641N EZH2,< 100 nM
same,EC50,[1],< 400 nM
Cc1cc(OC(F)F)c(CNC(=O)c2c(C)n([C@H](C)C3CCN(CC(C)(F)F)CC3)c3ccccc23)c(=O)[nH]1 [Compound 111],IC50,EZH2,< 100 nM
same,IC50,Y641N EZH2,< 100 nM
same,EC50,[1],< 400 nM
Cc1cc(Cl)c(CNC(=O)c2c(C)n([C@H](C)C3CCN(C4COC4)CC3)c3ccccc23)c(=O)[nH]1 [Compound 112],IC50,EZH2,< 100 nM
same,IC50,Y641N EZH2,< 100 nM
same,EC50,[1],< 400 nM
COc1cc(C)[nH]c(=O)c1CNC(=O)c1c(C)n([C@H](C)C2CCN(CC(F)(F)C(F)(F)F)CC2)c2ccccc12 [Compound 113],IC50,EZH2,< 100 nM
same,IC50,Y641N EZH2,< 100 nM
same,EC50,[1],< 400 nM
COc1cc(C)[nH]c(=O)c1CNC(=O)c1c(C)n([C@H](C)C2CCN(C(=O)C3(C(F)(F)F)CC3)CC2)c2ccccc12 [Compound 115],IC50,EZH2,< 100 nM
same,IC50,Y641N EZH2,< 100 nM
same,EC50,[1],< 400 nM
COc1cc(C)[nH]c(=O)c1CNC(=O)c1c(C)n([C@H](C)C2CCN(CC(C)(C)F)CC2)c2ccccc12 [Compound 116],IC50,EZH2,< 100 nM
same,IC50,Y641N EZH2,< 100 nM
same,EC50,[1],< 400 nM
"COc1cc(C)[nH]c(=O)c1CNC(=O)c1c(C)n([C@H](C)C2CCN(S(=O)(=O)C3CC3)CC2)c2ccccc12 [Compound 117, (R)-1-(1-(1-(cyclopropylsulfonyl)piperidin-4-yl)ethyl)-N-((4-methoxy-6-methyl-2-oxo-1,2-dihydropyridin-3-yl)methyl)-2-methyl-1H-indole-3-carboxamide]",IC50,EZH2,< 100 nM
same,IC50,Y641N EZH2,< 100 nM
same,EC50,[1],< 400 nM
COc1cc(C)[nH]c(=O)c1CNC(=O)c1c(C)n([C@H](C)C2CCN(CC3(F)CCC3)CC2)c2ccccc12 [Compound 118],IC50,EZH2,< 100 nM
same,IC50,Y641N EZH2,< 100 nM
same,EC50,[1],< 400 nM
COc1cc(C)[nH]c(=O)c1CNC(=O)c1c(C)n([C@H](C)C2CCN(CC3(F)CC3)CC2)c2ccccc12 [Compound 119],IC50,EZH2,< 100 nM
same,IC50,Y641N EZH2,< 100 nM
same,EC50,[1],< 400 nM
COc1cc(C)[nH]c(=O)c1CNC(=O)c1c(C)n([C@H](C)C2CCN(c3ncc(F)cn3)CC2)c2ccccc12 [Compound 120],IC50,EZH2,< 100 nM
same,IC50,Y641N EZH2,< 100 nM
same,EC50,[1],< 400 nM
COc1cc(C)[nH]c(=O)c1CNC(=O)c1c(C)n([C@H](C)C2CCN(C[C@H](OC)C(F)(F)F)CC2)c2ccccc12 [Compound 121],IC50,EZH2,< 100 nM
same,IC50,Y641N EZH2,< 100 nM
same,EC50,[1],< 400 nM
COc1cc(C)[nH]c(=O)c1CNC(=O)c1c(C)n([C@H](C)C2CCN(Cc3ccc(F)cc3)CC2)c2ccccc12 [Compound 122],IC50,EZH2,< 100 nM
same,IC50,Y641N EZH2,< 100 nM
same,EC50,[1],< 400 nM
CCS(=O)(=O)N1CCC([C@@H](C)n2c(C)c(C(=O)NCc3c(NC)cc(C)[nH]c3=O)c3ccccc32)CC1 [Compound 123],IC50,EZH2,< 100 nM
same,IC50,Y641N EZH2,< 100 nM
same,EC50,[1],< 400 nM
"COc1cc(C)[nH]c(=O)c1CNC(=O)c1c(C)n([C@H](C)C2CCN(c3ncc(Br)cn3)CC2)c2ccccc12 [Compound 124, (R)-1-(1-(1-(5-bromopyrimidin-2-yl)piperidin-4-yl)ethyl)-N-((4-methoxy-6-methyl-2-oxo-1,2-dihydropyridin-3-yl)methyl)-2-methyl-1H-indole-3-carboxamide]",IC50,EZH2,< 100 nM
same,IC50,Y641N EZH2,< 100 nM
same,EC50,[1],< 400 nM
COc1cc(C)[nH]c(=O)c1CNC(=O)c1c(C)n([C@H](C)C2CCN(c3cccnc3)CC2)c2ccccc12 [Compound 125],IC50,EZH2,< 100 nM
same,IC50,Y641N EZH2,< 100 nM
same,EC50,[1],< 400 nM
Cc1cc(Cl)c(CNC(=O)c2c(C)n([C@H](C)C3CCN(CCF)CC3)c3ccccc23)c(=O)[nH]1 [Compound 126],IC50,EZH2,< 100 nM
same,IC50,Y641N EZH2,< 100 nM
same,EC50,[1],< 400 nM
COc1cc(C)[nH]c(=O)c1CNC(=O)c1c(C)n([C@H](C)C2CCN(C(=O)C(C)(C)C)CC2)c2ccccc12 [Compound 129],IC50,EZH2,< 100 nM
same,IC50,Y641N EZH2,< 100 nM
same,EC50,[1],< 400 nM
Cc1cc(C)c(CNC(=O)c2c(C)n([C@H](C)C3CCN(S(=O)(=O)C4CNC4)CC3)c3ccccc23)c(=O)[nH]1 [Compound 171],IC50,EZH2; [2],< 100 nM
same,IC50,Y641N EZH2; [3],< 100 nM
Cc1cc(C)c(CNC(=O)c2c(C)n([C@H](C)C3CCN(S(=O)(=O)C4CCNCC4)CC3)c3ccccc23)c(=O)[nH]1 [Compound 172],IC50,EZH2; [2],< 100 nM
same,IC50,Y641N EZH2; [3],< 100 nM
